Publication PMC7967119, “Design and Synthesis of Non-Covalent Imidazo[1,2-a]quinoxaline-Based Inhibitors of EGFR and Their Anti-Cancer Assessment” (Molecules, 2021)
Where two headings read alike, the source gives them in different places. Values belong to the molecule of their own block, whether it stands above or below them.

Tests used:
[1] = target: EGFR^WT (Homo sapiens, UniProt P00533); test: EGFR inhibitory assay (Z-lyte kinase assay kit, Tyr 4 peptide, FRET-based); format: biochemical
Protocol: The test compounds were analyzed for EGFR inhibitory potential using z-lyte kinase assay kit–tyr 4 peptide assay kit (catalogue no. PV3193; Thermofisher, Mumbai, Maharashtra, India). The assay biochemically is FRET-based, which involves coupled enzyme format that relies on differential sensitivity of proteolytic cleavage of phosphorylated and non-phosphorylated peptides. The reaction proceeds in two steps, first involving the kinase reaction that is concerned with the transfer of phosphate group from ATP to single tyrosine residue, followed by development reaction, which involves site-protease role and cleaves non-phosphorylated peptide, allowing the disruption of FRET between donor and acceptor end of phosphorylated peptide, which facilitates deducing the emission ratio. The assay was performed per manufacturer protocol and per our published reports. […] Next, the assay master mix was prepared under ice-cold conditions by thawing and mixing kinase buffer (133 µL), kinase peptides (0.5 µL), phosphopeptide (0.5 µL) along with ATP (0.5 µL) solution. The master mix was added to testing compounds and further incubated for 1 h at room temperature and allowed the kinase reaction followed by development reaction to occur. After the stipulated period, reaction was stopped by addition of 5 µL stop solution to each reaction mixture.
The extent of phosphorylation was calculated by the following formula (Equation (1)):(1) % phosphorylation =1− (Emission ratio× F100%)− C100%/(C0%−C100%) + [Emission ratio (F100%−F0%)] where C0% = Average coumarin emission signal of the […]; F100% = Average Fluorescein emission signal of the 100% Phos. Control; F0% = Average Fluorescein emission signal of the 0% Phos. Control.

[2] = tested on: HCT-116 WT (colon cancer) cells; test: MTT antiproliferative assay, HCT-116 WT; conditions: Homo sapiens, HCT-116, 48 h, read-out: IC50 (μM) ± SEM, HCT-116 WT (Colon Cancer)
[3] = tested on: MCF-7 (breast) cells; test: H2DCFDA assay of ROS in MCF-7; format: cell-based; conditions: sub-IC50 concentration, 48 h
[4] = tested on: MDA-MB-231 cells; test: H2DCFDA assay of ROS in MDA-MB-231; format: cell-based, human; conditions: sub-IC50 concentration, 48 h
[5] = tested on: A549 cells; test: Flow cytometric PI cell cycle analysis in A549; format: cell-based, human; conditions: A549, sub-IC50 concentration, 48 h
Protocol: The assays were performed following our previous published reports. Briefly, A549 cells were cultured in 100 mm dishes and maintained to attain at least 80% confluency. […] After the stipulated period, the remaining media were collected along with the cells (trypsinization) and were centrifuged (1200 rpm for 5 min) and washed two times using 1X PBS. Furthermore, the cells were raised to the concentration of 400 µL and were equally divided (5 × 10^4) in four aliquots. The first three aliquots were added with H2DCFDA (10 µM/100 µL), JC-1 dye (1 mM/mL) and Annexin V and PI (as per manufacturer protocol (Thermo Fisher: V13242, Maharashtra, India) to analyze detection of alteration in ROS, ∆ψm and mode of cell death, respectively. The cancer cells were incubated in the dark for 30 min at rt before analysis. Next, the fourth aliquot cells were fixed using chilled ethanol (70%) and incubated at −20 °C for 4 h to allow fixing. After 4 h, cells were centrifuged (2200 rpm for 10 min) and washed twice with 1X PBS. Furthermore, the cells were treated with RNase and PI was added and they were further incubated for 30 min in the dark before analysis. All the samples were analyzed using BD C6 flow cytometer using various FL channels.

[6] = tested on: MDA-MB-231 (breast cancer) cells; test: MTT antiproliferative assay, MDA-MB-231; conditions: Homo sapiens, MDA-MB-231, 48 h, read-out: IC50 (μM) ± SEM, MDA-MB-231 (Breast Cancer)
[7] = tested on: A549 (lung cancer) cells harboring EGFR^WT; test: MTT antiproliferative assay, A549; conditions: Homo sapiens, A549, 48 h, read-out: IC50 (μM) ± SEM, A549 (Lung Cancer)
[8] = EGFR wild type, tested at 100, 250, 500 and 720 nM, triplicate, read-out: EGFR Inhibition IC50 (nM) ± SEM

Sequence of EGFR^WT (P00533 25-1210): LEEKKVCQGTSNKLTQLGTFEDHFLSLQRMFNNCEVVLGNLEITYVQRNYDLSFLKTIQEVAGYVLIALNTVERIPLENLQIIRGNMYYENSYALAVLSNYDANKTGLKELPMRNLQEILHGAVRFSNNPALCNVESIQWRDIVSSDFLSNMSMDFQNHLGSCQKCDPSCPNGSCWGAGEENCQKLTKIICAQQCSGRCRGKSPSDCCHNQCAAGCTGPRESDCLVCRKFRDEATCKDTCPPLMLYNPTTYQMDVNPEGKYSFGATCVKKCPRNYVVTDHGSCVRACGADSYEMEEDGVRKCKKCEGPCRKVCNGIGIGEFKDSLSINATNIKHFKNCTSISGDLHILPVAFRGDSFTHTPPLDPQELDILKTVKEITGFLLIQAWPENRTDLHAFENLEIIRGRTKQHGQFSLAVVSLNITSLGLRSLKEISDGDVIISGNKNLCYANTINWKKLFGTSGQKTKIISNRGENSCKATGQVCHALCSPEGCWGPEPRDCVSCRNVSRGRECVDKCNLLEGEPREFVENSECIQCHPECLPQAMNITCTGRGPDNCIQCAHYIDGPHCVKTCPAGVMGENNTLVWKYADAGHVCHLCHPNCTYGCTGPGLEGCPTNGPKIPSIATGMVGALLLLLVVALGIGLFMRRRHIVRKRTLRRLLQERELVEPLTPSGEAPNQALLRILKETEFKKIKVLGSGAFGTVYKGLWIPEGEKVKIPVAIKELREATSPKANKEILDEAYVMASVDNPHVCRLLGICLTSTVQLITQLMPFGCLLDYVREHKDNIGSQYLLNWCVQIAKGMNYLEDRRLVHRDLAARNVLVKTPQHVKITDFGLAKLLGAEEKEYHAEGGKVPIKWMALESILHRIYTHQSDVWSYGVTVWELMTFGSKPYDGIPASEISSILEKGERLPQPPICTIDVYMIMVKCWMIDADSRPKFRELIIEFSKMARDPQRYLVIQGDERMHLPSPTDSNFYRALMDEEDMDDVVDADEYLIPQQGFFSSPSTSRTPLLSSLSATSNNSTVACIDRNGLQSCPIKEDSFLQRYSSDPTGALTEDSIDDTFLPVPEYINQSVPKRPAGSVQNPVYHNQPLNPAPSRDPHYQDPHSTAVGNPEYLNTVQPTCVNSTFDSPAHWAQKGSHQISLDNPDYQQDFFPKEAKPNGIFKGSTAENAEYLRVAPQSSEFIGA

Compound: COc1cc(-c2nc3ccccc3n3c(N)c(C#N)nc23)cc(OC)c1OC [Compound 5a]
EGFR^WT inhibitory activity in words ([1]; EGFR wild type): poorly active or possessed no activity at all
IC50 [1, 8]: > 720 nM

Compound: N#Cc1nc2c(-c3cccc([N+](=O)[O-])c3)nc3ccccc3n2c1N [Compound 5b]
IC50 [1, 8]: 244.45 ± 0.032 nM

Compound: CN(C)c1ccc(-c2nc3ccccc3n3c(N)c(C#N)nc23)cc1 [Compound 5c, 1-Amino-4-(4-(dimethylamino)phenyl)imidazo[1,2-a]quinoxaline-2-carbonitrile]
melting point: 169 to 171 °C
EGFR^WT inhibitory activity in words ([1]; EGFR wild type): poorly active or possessed no activity at all
IC50 [1, 8]: > 720 nM

Compound: CC(C)c1ccc(-c2nc3ccccc3n3c(N)c(C#N)nc23)cc1 [Compound 5d, 1-Amino-4-(4-isopropylphenyl)imidazo[1,2-a]quinoxaline-2-carbonitrile]
melting point: 166 to 168 °C
EGFR^WT inhibitory activity in words ([1]; EGFR wild type): poorly active or possessed no activity at all
IC50 [1, 8]: > 720 nM

Compound: COc1ccc(OC)c(/C=N/c2c(C#N)nc3c(-c4cc(OC)ccc4OC)nc4ccccc4n23)c1 [Compound 6a]
IC50 [1, 8]: 429.81 ± 0.018 nM

Compound: COc1cc(/C=N/c2c(C#N)nc3c(-c4cc(OC)c(OC)c(OC)c4)nc4ccccc4n23)cc(OC)c1OC [Compound 6b, (E)-1-((3,4,5-Trimethoxybenzylidene)amino)-4-(3,4,5-trimethoxyphenyl)imidazo[1,2-a]quinoxaline-2-carbonitrile]
IC50 [2]: 5.1 ± 0.029 µM
Percentage decrease in ROS, MCF-7 [3]: marginal
Percentage decrease in ROS, MDA-MB-231 [4]: marginal
IC50 [1, 8]: 211.22 ± 0.027 nM
Cell cycle analysis G1 (%) [5]: 34.51%
IC50 [6]: 4.1 ± 0.031 µM

Compound: COc1ccc(/C=N/c2c(C#N)nc3c(-c4ccc(OC)c(OC)c4)nc4ccccc4n23)cc1OC [Compound 6c, (E)-1-((3,4-Dimethoxybenzylidene)amino)-4-(3,4-dimethoxy-phenyl)imidazo[1,2-a]quinoxaline-2-carbonitrile]
melting point: 170 to 172 °C
EGFR^WT inhibitory activity in words ([1]; EGFR wild type): poorly active or possessed no activity at all
IC50 [1, 8]: > 720 nM

Compound: N#Cc1nc2c(-c3ccc(Cl)cc3)nc3ccccc3n2c1/N=C/c1ccc(Cl)cc1 [Compound 6d]
EGFR^WT inhibitory activity in words ([1]; EGFR wild type): poorly active or possessed no activity at all
IC50 [1, 8]: > 720 nM

Compound: COc1ccc(/C=N/c2c(C#N)nc3n2-c2ccccc2NC3c2ccc(OC)c(OC)c2)cc1OC (stereo not shown) [Compound 7a]
IC50 [1, 8]: > 720 nM

Compound: N#Cc1nc2n(c1/N=C/c1ccccc1[N+](=O)[O-])-c1ccccc1NC2c1ccccc1[N+](=O)[O-] (stereo not shown) [Compound 7b]
IC50 [1, 8]: > 720 nM

Compound: N#Cc1nc2n(c1/N=C/c1ccc(O)c(O)c1)-c1ccccc1NC2c1ccc(O)c(O)c1 (stereo not shown) [Compound 7c]
IC50 [1, 8]: 620.17 ± 0.019 nM

Compound: COc1ccc(OC)c(/C=N/c2c(C#N)nc3n2-c2ccccc2NC3c2cc(OC)ccc2OC)c1 (stereo not shown) [Compound 7d]
IC50 [1, 8]: 652.56 ± 0.024 nM

Compound: N#Cc1nc2n(c1/N=C/c1ccccc1Br)-c1ccccc1NC2c1ccccc1Br (stereo not shown) [Compound 7e]
IC50 [1, 8]: 665.89 ± 0.029 nM

Compound: N#Cc1nc2n(c1/N=C/c1ccco1)-c1ccccc1NC2c1ccco1 (stereo not shown) [Compound 7f]
IC50 [1, 8]: 232.4 ± 0.031 nM

Compound: N#Cc1nc2n(c1/N=C/c1ccc([N+](=O)[O-])cc1[N+](=O)[O-])-c1ccccc1NC2c1ccc([N+](=O)[O-])cc1[N+](=O)[O-] (stereo not shown) [Compound 7g]
IC50 [1, 8]: 476.87 ± 0.022 nM

Compound: N#Cc1nc2n(c1/N=C/c1ccccc1F)-c1ccccc1NC2c1ccccc1F (stereo not shown) [Compound 7h]
IC50 [2]: < 1 µM
IC50 [7]: 4.09 ± 0.024 µM
IC50 [1, 8]: 222.21 ± 0.028 nM
IC50 [6]: 11.2 ± 0.022 µM

Compound: COc1cc(/C=N/c2c(C#N)nc3n2-c2ccccc2NC3c2cc(OC)c(OC)c(OC)c2)cc(OC)c1OC (stereo not shown) [Compound 7i]
EGFR^WT inhibitory activity in words ([1]; EGFR wild type): poorly active or possessed no activity at all
IC50 [1, 8]: 613.37 ± 0.024 nM

Compound: N#Cc1nc2n(c1/N=C/c1ccc([N+](=O)[O-])cc1)-c1ccccc1NC2c1ccc([N+](=O)[O-])cc1 (stereo not shown) [Compound 7j]
IC50 [2]: < 1 µM
IC50 [7]: 8.75 ± 0.028 µM
IC50 [1]: 193.18 ± 0.021 nM
IC50 [6]: 2.2 ± 0.026 µM

Compound: N#Cc1ccc(/C=N/c2c(C#N)nc3n2-c2ccccc2NC3c2ccc(C#N)cc2)cc1 (stereo not shown) [Compound 7k, (E)-1-((4-Cyanobenzylidene)amino)-4-(4-cyanophenyl)-4,5-dihydroimidazo[1,2-a]quinoxaline-2-carbonitrile]
melting point: 173 to 175 °C
EGFR^WT inhibitory activity in words ([1]; EGFR wild type): poorly active or possessed no activity at all
IC50 [1, 8]: > 720 nM

Compound: N#Cc1nc2n(c1N)-c1ccccc1N1C(=O)CCC21 (stereo not shown) [Compound 11]
EGFR^WT inhibitory activity in words ([1]; EGFR wild type): poorly active or possessed no activity at all
IC50 [1, 8]: 669.39 ± 0.019 nM

Compound: C#Cc1cccc(Nc2ncnc3cc(OCCOC)c(OCCOC)cc23)c1 [Erlotinib, erlotinib, reference compound]
IC50 [2]: 2.98 ± 0.023 µM
IC50 [6]: 3.33 ± 0.018 µM

Continued, values first:

IC50 [1, 8]: > 720 nM
Compound: N#Cc1ccc(C2Nc3ccccc3-n3c2nc(C#N)c3N)cc1 (stereo not shown) [Compound 8a]

IC50 [1, 8]: > 720 nM
Compound: N#Cc1nc2n(c1N)-c1ccccc1NC2c1cccc([N+](=O)[O-])c1 (stereo not shown) [Compound 8b]

melting point: 165 to 167 °C
IC50 [1, 8]: > 720 nM
Compound: N#Cc1nc2n(c1N)-c1ccccc1NC2c1ccccc1[N+](=O)[O-] (stereo not shown) [Compound 8c, 1-Amino-4-(2-nitrophenyl)-4,5-dihydroimidazo[1,2-a]quinoxaline-2-carbonitrile]

IC50 [2]: > 25 µM
IC50 [7]: 6.63 ± 0.031 µM
IC50 [1, 8]: 223.32 ± 0.031 nM
IC50 [6]: 14.1 ± 0.021 µM
Compound: C/C(=N\c1c(C#N)nc2n1-c1ccccc1NC2(C)c1ccc(Cl)cc1)c1ccc(Cl)cc1 (stereo not shown) [Compound 9a]

IC50 [1, 8]: 244.51 ± 0.021 nM
Compound: C/C(=N\c1c(C#N)nc2n1-c1ccccc1NC2(C)c1cccs1)c1cccs1 (stereo not shown) [Compound 9b]

IC50 [2]: 7.9 ± 0.027 µM
IC50 [7]: 12.06 ± 0.021 µM
IC50 [1, 8]: 221.53 ± 0.028 nM
IC50 [6]: 13.6 ± 0.028 µM
Compound: COc1ccc(/C(C)=N/c2c(C#N)nc3n2-c2ccccc2NC3(C)c2ccc(OC)c(OC)c2)cc1OC (stereo not shown) [Compound 9c]

IC50 [1, 8]: 247.32 ± 0.021 nM
Compound: CC1(c2cccc([N+](=O)[O-])c2)Nc2ccccc2-n2c1nc(C#N)c2N (stereo not shown) [Compound 10a]

IC50 [1, 8]: 716.32 ± 0.026 nM
Compound: N#Cc1nc2n(c1N)-c1ccccc1NC2(C(=O)c1ccccc1)c1ccccc1 (stereo not shown) [Compound 10c]

IC50 [1, 8]: 624.57 ± 0.024 nM
Compound: CC1(C)Nc2ccccc2-n2c1nc(C#N)c2N [Compound 10d]
